The source of these data is patent US5393780A, “4-fluorobiphenyl derivatives” (priority 1993, dated 1995).

Data set [1] addresses T1, HMG-CoA Reductase (Rattus norvegicus, UniProt P51639).
T1 sequence (P51639 1-887): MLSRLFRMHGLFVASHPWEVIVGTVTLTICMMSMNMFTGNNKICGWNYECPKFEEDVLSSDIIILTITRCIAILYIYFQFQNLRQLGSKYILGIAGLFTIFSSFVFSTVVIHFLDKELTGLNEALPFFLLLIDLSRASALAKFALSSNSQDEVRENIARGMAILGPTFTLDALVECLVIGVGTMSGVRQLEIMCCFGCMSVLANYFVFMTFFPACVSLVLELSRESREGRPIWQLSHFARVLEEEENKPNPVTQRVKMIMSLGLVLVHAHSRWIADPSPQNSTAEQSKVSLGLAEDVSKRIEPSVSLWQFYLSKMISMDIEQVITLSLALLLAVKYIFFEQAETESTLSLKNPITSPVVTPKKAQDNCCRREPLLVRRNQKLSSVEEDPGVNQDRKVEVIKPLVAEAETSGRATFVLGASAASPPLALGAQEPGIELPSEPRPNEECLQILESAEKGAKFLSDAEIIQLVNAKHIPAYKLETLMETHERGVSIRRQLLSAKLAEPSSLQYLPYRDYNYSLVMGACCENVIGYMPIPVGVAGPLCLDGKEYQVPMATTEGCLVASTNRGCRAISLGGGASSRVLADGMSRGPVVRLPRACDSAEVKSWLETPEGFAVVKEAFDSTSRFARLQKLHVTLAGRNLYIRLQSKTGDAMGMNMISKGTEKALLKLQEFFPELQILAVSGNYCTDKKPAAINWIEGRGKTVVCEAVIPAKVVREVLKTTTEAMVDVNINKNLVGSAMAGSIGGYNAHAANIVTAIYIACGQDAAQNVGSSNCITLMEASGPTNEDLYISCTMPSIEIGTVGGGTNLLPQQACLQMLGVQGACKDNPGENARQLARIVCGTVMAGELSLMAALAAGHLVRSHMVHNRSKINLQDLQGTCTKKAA
As to the kind of experiment: biochemical. The following applies: read-out: HMG-CoA Reductase Inhibition %. On the procedure: Determination of Inhibitory Activity on HMG-CoA Reductase
The inhibitory effect on HMG-CoA Reductase of each of representative examples of the 4-fluorobiphenyl derivatives prepared in the above-discussed examples was determined in accordance with the method described in Journal of Biological Chemistry (J. Biol. Chem.) Vol. 234, page 2835 (1959).

Data set [2] can be described thus: Determination of Partition Coefficient (n-octanol/phosphoric acid buffer pH 7.0). The data set is classed as physicochemical. The following applies: P=Co/Cw; for logD: n-octanol/phosphate buffer. On the procedure:
Determination of Partition Coefficient
The partition coefficient of each of representative compounds synthesized in the above-mentioned Examples was determined in accordance with the method by Hansh et al. (J. Am. Chem. Soc., 86, 5175 (1964)).
More specifically, the compound to be tested was dissolved in either an n-octanol solution which was saturated with a phosphoric acid buffer solution of pH 7.0 (Solution A) or a phosphoric acid buffer solution of pH 7.0 saturated with n-octanol (Solution B).
5 ml of the solution (Solution A or Solution B) in which the compound was dissolved and 5 ml of the solution (Solution B or Solution A) in which the compound was not dissolved were placed in a screw vial tube, and shaken for 30 minutes. This mixed solution was centrifuged for 15 minutes, and was then allowed to stand. The mixed solution was separated into two phases, that is, a water phase and a n-octanol phase.
The concentration of the compound in the water phase was determined by the UV method, and the concentration of the compound in the n-octanol phase was determined by deducting the concentration of the compound in the water phase from the concentration of the compound in the initially mixed solution (Solution A and Solution B).
The partition coefficient of the compound was calculated in accordance with the following formula:
Partition coefficient (P)=Co/Cw
wherein Co is the concentration of the compound in the n-octanol phase, and Cw is the concentration of the compound in the water phase.

The subject of data set [3] is biosynthesis of sterol. Briefly: Determination of Inhibition of Sterol Synthesis (14C-acetic acid, liver, after oral dosing). The data set is classed as in vivo, SD rat. The settings on record: 14C-acetic acid five hours later. On the procedure:
Determination of Inhibition of Sterol Synthesis
Representative compounds (0.3 mg/5 ml/kg) suspended in a 5% arabic gum solution were orally given to SD rate weighing 150 to 200 g.
Five hours later, ^14 C-acetic acid (100 μCi/kg) was intraperitoneally injected, and furthermore one hour later, liver was removed to determine the inhibitory activity of each of the compounds on the biosynthesis of sterol.

For data set [4], the system named is cholesterol in the blood. The following applies: cited from earlier work.
In data set [5] the target is T2, HMG-CoA Reductase (Homo sapiens, UniProt P04035).
T2 sequence (P04035 1-888): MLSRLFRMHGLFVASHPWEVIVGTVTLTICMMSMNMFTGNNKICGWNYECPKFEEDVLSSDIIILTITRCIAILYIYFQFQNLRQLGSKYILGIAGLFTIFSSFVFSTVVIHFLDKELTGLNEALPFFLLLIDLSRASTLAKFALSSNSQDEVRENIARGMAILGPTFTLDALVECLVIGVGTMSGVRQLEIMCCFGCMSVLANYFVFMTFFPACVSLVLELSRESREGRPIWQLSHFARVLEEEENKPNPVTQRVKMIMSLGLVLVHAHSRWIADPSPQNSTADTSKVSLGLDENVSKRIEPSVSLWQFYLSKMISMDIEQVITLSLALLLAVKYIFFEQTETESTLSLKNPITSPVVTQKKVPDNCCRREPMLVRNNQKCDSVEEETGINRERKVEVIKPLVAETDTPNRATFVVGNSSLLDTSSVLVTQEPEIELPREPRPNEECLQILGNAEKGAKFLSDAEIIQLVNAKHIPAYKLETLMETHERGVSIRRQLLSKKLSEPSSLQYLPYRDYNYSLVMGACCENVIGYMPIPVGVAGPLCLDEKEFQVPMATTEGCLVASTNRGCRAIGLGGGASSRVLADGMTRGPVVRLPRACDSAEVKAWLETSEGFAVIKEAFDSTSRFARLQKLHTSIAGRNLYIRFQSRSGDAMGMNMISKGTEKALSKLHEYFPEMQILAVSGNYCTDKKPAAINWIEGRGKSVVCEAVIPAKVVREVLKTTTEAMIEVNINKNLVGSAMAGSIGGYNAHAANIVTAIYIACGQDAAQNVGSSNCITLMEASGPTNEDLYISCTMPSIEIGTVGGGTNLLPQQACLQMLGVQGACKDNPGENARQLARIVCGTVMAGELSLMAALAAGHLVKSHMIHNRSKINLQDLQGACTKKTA
The following applies: cited from earlier work.

The subject of data set [6] is liver cells and non-liver cells. The following applies: cited from earlier work.
The conditions of data set [7]: referred to JAMA (Japanese Edition) October 1991 Supplement, pages 42-47; cited from earlier work.
For data set [8] the following is noted: cited from earlier work.
For data set [9], the system named is cells of smooth muscles. The following applies: advantage over pravastatin; cited from earlier work.
The conditions of data set [10]: literature reports; cited from earlier work.

Each structure is given as a SMILES string.

Consider `COCCOc1cc(-c2ccc(F)cc2)c(/C=C/C(O)CC(O)CC(=O)[O-])c(C(C)C)c1.[Na+]` (centres unmarked), for which the inhibition at 0.1 µM in data set [1] stood at 96%. This molecule also showed a logD in [2] of 0.716. Moreover, the “Sterol Synthesis Inhibition %” value in data set [3] (Administered amount 0.3 mg/kg) turned out to be 30%.
In the case of `COCCOCCOc1cc(-c2ccc(F)cc2)c(/C=C/C(O)CC(O)CC(=O)O)c(C(C)C)c1` (centres unmarked), in data set [2], the logD was 0.519.
Consider `CC(C)c1cc(OCc2ccccn2)cc(-c2ccc(F)cc2)c1/C=C/C(O)CC(O)CC(=O)O` (centres unmarked), for which, in data set [1], the inhibition at 0.1 µM is 95%. Also, the pH-dependent lipophilicity (logD) in data set [2] is 1.43.
The matching figures for `CC(C)c1cc(OCc2cccnc2)cc(-c2ccc(F)cc2)c1/C=C/C(O)CC(O)CC(=O)O` (centres unmarked): 95% and 1.41.
As to `CC(C)c1cc(OCc2ccncc2)cc(-c2ccc(F)cc2)c1/C=C/C(O)CC(O)CC(=O)O` (centres unmarked), the inhibition at 0.1 µM in data set [1] came out at 96%. The logD in data set [2] was 1.48.
On to `CC(C)c1cc(OCCO)cc(-c2ccc(F)cc2)c1/C=C/C(O)CC(O)CC(=O)[O-].[Na+]` (centres unmarked), for which the inhibition at 0.1 µM in [1] turned out to be 98%. This molecule had a pH-dependent lipophilicity (logD) in data set [2] of 0.114. The “Sterol Synthesis Inhibition %” value in data set [3] (Administered amount 0.3 mg/kg) is 40%.
For the molecule `CC[C@H](C)C(=O)O[C@H]1CCC=C2C=C[C@H](C)[C@H](CC[C@@H]3C[C@@H](O)CC(=O)O3)[C@H]21` [ML-236B, Mevastatin], the cholesterol lowering effect entry in data set [4] was “capable of lowering the concentration of cholesterol in the blood”. In addition, the “inhibitory effect on HMG-CoA reductase” value in [5] was “competitive inhibitory effect on HMG-CoA reductase”.
As to `CC[C@H](C)C(=O)O[C@H]1C[C@H](O)C=C2C=C[C@H](C)[C@H](CC[C@@H](O)C[C@@H](O)CC(=O)O)[C@H]21` [Pravastatin], the inhibition at 0.1 µM in [1] stood at 88%. In data set [2], the “Partition Coefficient” value is on record as 0.36 and the logD was -0.444. For the same molecule, the “incorporation into liver / non-liver cells” value in data set [6] was “not incorporated into histoblasts other than those of liver”. Moreover, in [7], the “Partition Coefficient (literature)” value is 0.34. For the same molecule, the “Sterol Synthesis Inhibition %” value in data set [3] (Administered amount 1 mg/kg) was determined as 16%. In addition, the water-solubility / lipid-solubility entry in [8] is “highly water-soluble”.
`CCC(C)(C)C(=O)O[C@H]1C[C@@H](C)C=C2C=C[C@H](C)[C@H](CC[C@@H]3C[C@@H](O)CC(=O)O3)[C@H]21` [Simvastatin]: the cholesterol lowering effect result in data set [4] is listed as “strong cholesterol lowering effect”. Besides, the “Partition Coefficient” value in data set [2] (ring-opened type sodium salt) worked out at 74. Also, the “Partition Coefficient (literature)” value in data set [7] is 75.8. In addition, the “Sterol Synthesis Inhibition %” value in [3] (Administered amount 0.3 mg/kg) is reported as 1%; in data set [3] (Administered amount 1 mg/kg), 41%. Besides, the “cytostatic function with respect to the cells of smooth muscles” value in [9] is on record as “antiarteriosclerosis effect because of its cytostatic function with respect to the cells of smooth muscles”.
On to `CC[C@H](C)C(=O)O[C@H]1C[C@@H](C)C=C2C=C[C@H](C)[C@H](CC[C@@H]3C[C@@H](O)CC(=O)O3)[C@H]21` [lovastatin], for which, in data set [4], the cholesterol lowering effect result is “strong cholesterol lowering effect”. Further, the “incorporation into liver / non-liver cells” value in data set [6] is “transferred into both liver cells and non-liver cells”. In addition, the water-solubility / lipid-solubility entry in data set [8] was “highly lipid-soluble”. In data set [10], the side effects result was “myositis and sleep disorder”.
